Measured values published in patent US4472413A, “9'-Azabicyclo [3.3.1] nonyl benzamide” (Beecham Group p.l.c., priority 1981, dated 1984).

Tested on: post-synaptic Dopamine (D.A.) receptors
Assay: Inhibition of apomorphine induced climbing in the mouse
Assay type: in vivo
Conditions: po, 4 hour post dosing; apomorphine 1 mg/kg subcutaneous; male CD1 mice
Experimental: The results in the following table are an illustration of the anti-psychotic activity of the present compounds as shown by Inhibition of Apormorphine Induced Climbing in the Mouse, a standard test.
Inhibition of apomorphine induced climbing in the mouse
The test is based on that described by Protais, P., Constantin, J. and Schwartz J. C. (1976), Psychopharmacology, 50, 1-6.
When mice are given a dose of 1 mg/kg apomorphine and then placed in an enclosed environment, such as an inverted wire cage, they are seen to climb around the walls. This behavioural phenomenon is thought to be a consequence of the stimulation of post-synaptic Dopamine (D.A.) receptors in the nucleus accumbens. Inhibition of apomorphine induced climbing is therefore indicative of post-synaptic D.A. receptor blockage in the accumbens.
Groups of 10 male CD1 mice, weighing 25-30 g were pre-treated orally with either graded doses of the test compound or vehicle, at appropriate time intervals before the subcutaneous administration of a sub-maximal dose of apomorphine (1 mg/kg). Immediately after the apomorphine injection the mice were placed in wire `climbing cages` and each animal was scored for climbing behaviour at 10 and 20 minutes post apomorphine as follows:
Four paws on cage floor=0
The total score was calculated for each group of mice and expressed as a percentage inhibition of climbing. [formula]
ED50's and fiducial limits were calculated according to the method of Litchfield and Wilcoxon, the ED50 being the dose that produced a 50% inhibition of apomorphine-induced climbing.

First: COc1cc(N)c(Cl)cc1C(=O)N[C@@H]1C[C@H]2CCC[C@@H](C1)N2Cc1ccc(F)cc1 [Example 1B, 4-Amino-5-chloro-2-methoxy-N-{3'β-[9'-(4-fluorobenzyl)-9'-azabicyclo[3.3.1]-nonyl]}-benzamide]
Second: COc1cc(N)c(Cl)cc1C(=O)N[C@@H]1C[C@H]2CCC[C@@H](C1)N2Cc1ccc(Cl)cc1 [Example 2B]
The “ED50 (dose that produced a 50% inhibition of apomorphine-induced climbing)” value of the first is 3.4-fold lower: 0.008 mg/kg for the first, 0.027 mg/kg for the second.

`COc1cc(N)c(Cl)cc1C(=O)N[C@@H]1C[C@H]2CCC[C@@H](C1)N2Cc1ccc(C)cc1` [Example 3B, 4-Amino-5-chloro-2-methoxy-N-{3'β[9'-(4-methylbenzyl)-9'-azabicyclo[3.3.1]-nonyl]}-benzamide] was tested, and the “ED50 (dose that produced a 50% inhibition of apomorphine-induced climbing)” value was 0.07 mg/kg.
